Usually IC50 stands for the concentration needed to halve the response being measured.

Molecules are shown by their SMILES.

The target of the experiment is T1, CCR2 (Homo sapiens, UniProt P41597).
T1 construct: host or cells: THP-1 (human monocytic cell line)
T1 sequence (P41597 1-360 isoform P41597-2): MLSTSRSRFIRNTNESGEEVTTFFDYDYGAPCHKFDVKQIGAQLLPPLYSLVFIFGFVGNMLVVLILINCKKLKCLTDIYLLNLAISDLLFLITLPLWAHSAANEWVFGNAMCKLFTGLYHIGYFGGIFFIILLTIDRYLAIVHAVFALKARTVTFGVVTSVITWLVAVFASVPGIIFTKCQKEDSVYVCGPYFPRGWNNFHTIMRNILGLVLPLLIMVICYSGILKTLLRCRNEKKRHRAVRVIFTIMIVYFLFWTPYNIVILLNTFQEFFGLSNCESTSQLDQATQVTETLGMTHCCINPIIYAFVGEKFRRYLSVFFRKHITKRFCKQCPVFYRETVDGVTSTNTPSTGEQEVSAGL
Kind of experiment: MCP-1 Receptor Binding Assay in THP-1 Cells (125I labeled MCP-1). The following applies: 0.5 nM 125I labeled MCP-1, 2 hours at 30° C., read-out: Inhibition of MCP-1 Binding IC50, CCR2 Binding. The procedure:
Compounds of the invention were subjected to various representative biological tests. […] MCP-1 Receptor Binding Assay in THP-1 Cells
Human monocytic cell line THP-1 cells were obtained from American Type Culture Collection (Manassas, Va., USA). […] The cell density was maintained […].
1 μM cold MCP-1 was used for nonspecific binding.
Turning to `CC(=O)Nc1ccc(C2CCC(N3CC(NC(=O)CNC(=O)c4cccc(C(F)(F)F)c4)C3)CC2)nc1` (stereo not drawn) [Example 13, N-({1-[4-(5-Acetylamino-pyridin-2-yl)-cyclohexyl]-azetidin-3-ylcarbamoyl}-methyl)-3-trifluoromethyl-benzamide], the IC50 was 90 nM. `Nc1ccnc(C2CCC(N3CC(NC(=O)CNC(=O)c4cccc(C(F)(F)F)c4)C3)CC2)c1` (stereo not drawn) [Example 33, N-({1-[4-(4-Amino-pyridin-2-yl)-cyclohexyl]-azetidin-3-ylcarbamoyl}-methyl)-3-trifluoromethyl-benzamide]: the IC50 stood at 250 nM. Turning to `O=C(CNC(=O)c1cccc(C(F)(F)F)c1)NC1CN(C2CCC(c3cnc(C(=O)O)s3)CC2)C1` (single isomer, unassigned) [Example 52a, 5-(4-{3-[2-(3-Trifluoromethyl-benzoylamino)-acetylamino]-azetidin-1-yl}-cyclohexyl)-thiazole-2-carboxylic acid], the 50% inhibitory concentration (IC50) worked out at 2800 nM.

In the case of `COc1cnccc1C1CCC(N2CC(NC(=O)CNC(=O)c3cccc(C(F)(F)F)c3)C2)CC1` (stereo not drawn) [Example 8, N-({1-[4-(3-Methoxy-pyridin-4-yl)-cyclohexyl]-azetidin-3-ylcarbamoyl}-methyl)-3-trifluoromethyl-benzamide], the concentration for half-maximal inhibition (IC50) was determined as 25 nM. Turning to `O=C(CNC(=O)c1cccc(C(F)(F)F)c1)NC1CN(C2CCC(c3nc4c(c(=O)[nH]3)CCCC4)CC2)C1` (mixture of isomers) [Example 61, N-({1-[4-(4-Oxo-3,4,5,6,7,8-hexahydro-quinazolin-2-yl)-cyclohexyl]-azetidin-3-ylcarbamoyl}-methyl)-3-trifluoromethyl-benzamide], the IC50 worked out at 4000 nM. `O=C(CNC(=O)c1cccc(C(F)(F)F)c1)NC1CN(C2CCC(c3c[nH]c4ccccc34)CC2)C1` (stereo not drawn) [Example 50, N-({1-[4-(1H-Indol-3-yl)-cyclohexyl]-azetidin-3-ylcarbamoyl}-methyl)-3-trifluoromethyl-benzamide]: the IC50 came to 920 nM.

Take `CC(=O)Nc1cccnc1C1CCC(N2CC(NC(=O)CNC(=O)c3cccc(C(F)(F)F)c3)C2)CC1` (stereo not drawn) [Example 18, N-({1-[4-(3-Acetylamino-pyridin-2-yl)-cyclohexyl]-azetidin-3-ylcarbamoyl}-methyl)-3-trifluoromethyl-benzamide]: the IC50 turned out to be 380 nM.

For the molecule `O=C(CNC(=O)c1cccc(C(F)(F)F)c1)NC1CN(C2CCC(c3noc(=O)[nH]3)CC2)C1` (stereo not drawn) [Example 57, N-({1-[4-(5-Oxo-4,5-dihydro-[1,2,4]oxadiazol-3-yl)-cyclohexyl]-azetidin-3-ylcarbamoyl}-methyl)-3-trifluoromethyl-benzamide], the IC50 was 1100 nM. On to `O=C(CNC(=O)c1cccc(C(F)(F)F)c1)NC1CN(C2CCC(c3ccc(=O)n(CC(F)(F)F)c3)CC2)C1` (single isomer, unassigned) [Example 42a, N-[(1-{4-[6-Oxo-1-(2,2,2-trifluoro-ethyl)-1,6-dihydro-pyridin-3-yl]-cyclohexyl}-azetidin-3-ylcarbamoyl)-methyl]-3-trifluoromethyl-benzamide], for which the IC50 came to 150 nM. `CC(C)n1cc(C2CCC(N3CC(NC(=O)CNC(=O)c4cccc(C(F)(F)F)c4)C3)CC2)ccc1=O` (single isomer, unassigned) [Example 40a, N-({1-[4-(1-Isopropyl-6-oxo-1,6-dihydro-pyridin-3-yl)-cyclohexyl]-azetidin-3-ylcarbamoyl}-methyl)-3-trifluoromethyl-benzamide]: the 50% inhibitory concentration (IC50) was 330 nM.

On to `NC(=O)c1ncc(C2CCC(N3CC(NC(=O)CNC(=O)c4cccc(C(F)(F)F)c4)C3)CC2)s1` (stereo not drawn) [Example 53, 5-(4-{3-[2-(3-Trifluoromethyl-benzoylamino)-acetylamino]-azetidin-1-yl}-cyclohexyl)-thiazole-2-carboxylic acid amide], for which the 50% inhibitory concentration (IC50) was determined as 1000 nM. As to `O=C(CNC(=O)c1cccc(C(F)(F)F)c1)NC1CN(C2CCC(c3ccncc3O)CC2)C1` (stereo not drawn) [Example 9, N-({1-[4-(3-Hydroxy-pyridin-4-yl)-cyclohexyl]-azetidin-3-ylcarbamoyl}-methyl)-3-trifluoromethyl-benzamide], the IC50 is 52 nM. As for `O=C(CNC(=O)c1cccc(C(F)(F)F)c1)NC1CN(C2CCC(c3cccc(NC(=O)C(F)(F)F)n3)CC2)C1` (stereo not drawn) [Example 24, N-[(1-{4-[6-(2,2,2-Trifluoro-acetylamino)-pyridin-2-yl]-cyclohexyl}-azetidin-3-ylcarbamoyl)-methyl]-3-trifluoromethyl-benzamide], the figure is 60 nM; as for `Cn1cc(C2CCC(N3CC(NC(=O)CNC(=O)c4cccc(C(F)(F)F)c4)C3)CC2)c(=O)[nH]c1=O` (stereo not drawn) [Example 56, N-({1-[4-(1-Methyl-2,4-dioxo-1,2,3,4-tetrahydro-pyrimidin-5-yl)-cyclohexyl]-azetidin-3-ylcarbamoyl}-methyl)-3-trifluoromethyl-benzamide], 5800 nM. In the case of `Cn1cccc(C2CCC(N3CC(NC(=O)CNC(=O)c4cccc(C(F)(F)F)c4)C3)CC2)c1=O` (stereo not drawn) [Example 48, N-({1-[4-(1-Methyl-2-oxo-1,2-dihydro-pyridin-3-yl)-cyclohexyl]-azetidin-3-ylcarbamoyl}-methyl)-3-trifluoromethyl-benzamide], the half-maximal inhibitory concentration (IC50) was 630 nM. With `CS(=O)(=O)Nc1cccc(C2CCC(N3CC(NC(=O)CNC(=O)c4cccc(C(F)(F)F)c4)C3)CC2)n1` (stereo not drawn) [Example 26, N-({1-[4-(6-Methanesulfonylamino-pyridin-2-yl)-cyclohexyl]-azetidin-3-ylcarbamoyl}-methyl)-3-trifluoromethyl-benzamide], the 50% inhibitory concentration (IC50) amounted to 840 nM. In the case of `Cn1cc(C2CCC(N3CC(NC(=O)CNC(=O)c4cccc(C(F)(F)F)c4)C3)CC2)ccc1=O` (single isomer, unassigned) [Example 38a, N-({1-[4-(1-Methyl-6-oxo-1,6-dihydro-pyridin-3-yl)-cyclohexyl]-azetidin-3-ylcarbamoyl}-methyl)-3-trifluoromethyl-benzamide], the 50% inhibitory concentration (IC50) is 46 nM. On to `CNc1ccncc1C1CCC(N2CC(NC(=O)CNC(=O)c3cccc(C(F)(F)F)c3)C2)CC1` (stereo not drawn) [Example 29a, N-({1-[4-(4-Methylamino-pyridin-3-yl)-cyclohexyl]-azetidin-3-ylcarbamoyl}-methyl)-3-trifluoromethyl-benzamide], for which the IC50 worked out at 1200 nM. Regarding `Nc1cccc(C2CCC(N3CC(NC(=O)CNC(=O)c4ccc(F)c(C(F)(F)F)c4)C3)CC2)n1` (stereo not drawn) [Example 28, N-({1-[4-(6-Amino-pyridin-2-yl)-cyclohexyl]-azetidin-3-ylcarbamoyl}-methyl)-4-fluoro-3-trifluoromethyl-benzamide], the IC50 worked out at 89 nM. For the molecule `O=C(CNC(=O)c1cccc(C(F)(F)F)c1)NC1CN(C2CCC(c3noc(C(Cl)(Cl)Cl)n3)CC2)C1` (stereo not drawn) [Example 58, N-({1-[4-(5-Trichloromethyl-[1,2,4]oxadiazol-3-yl)-cyclohexyl]-azetidin-3-ylcarbamoyl}-methyl)-3-trifluoromethyl-benzamide], the concentration for half-maximal inhibition (IC50) came out at 510 nM. As for `COc1cc(C2CCC(N3CC(NC(=O)CNC(=O)c4cccc(C(F)(F)F)c4)C3)CC2)ccn1` (stereo not drawn) [Example 7, N-({1-[4-(2-Methoxy-pyridin-4-yl)-cyclohexyl]-azetidin-3-ylcarbamoyl}-methyl)-3-trifluoromethyl-benzamide], the figure is 32 nM; as for `O=C(CNC(=O)c1cccc(C(F)(F)F)c1)NC1CN(C2CCC(c3ccc(=O)n(CCO)c3)CC2)C1` (stereo not drawn) [Example 43, N-[(1-{4-[1-(2-Hydroxy-ethyl)-6-oxo-1,6-dihydro-pyridin-3-yl]-cyclohexyl}-azetidin-3-ylcarbamoyl)-methyl]-3-trifluoromethyl-benzamide], 330 nM; as for `Nc1ccc(C2CCC(N3CC(NC(=O)CNC(=O)c4cccc(C(F)(F)F)c4)C3)CC2)nc1` (stereo not drawn) [Example 21, N-({1-[4-(5-Amino-pyridin-2-yl)-cyclohexyl]-azetidin-3-ylcarbamoyl}-methyl)-3-trifluoromethyl-benzamide], 85 nM. As for `O=C(CNC(=O)c1cccc(C(F)(F)F)c1)NC1CN(C2CCC(c3nsc(Cl)n3)CC2)C1` (mixture of isomers) [Example 62, N-({1-[4-(5-Chloro-[1,2,4]thiadiazol-3-yl)-cyclohexyl]-azetidin-3-ylcarbamoyl}-methyl)-3-trifluoromethyl-benzamide], the half-maximal inhibitory concentration (IC50) was 390 nM. `Cc1cc(=O)[nH]c(C2CCC(N3CC(NC(=O)CNC(=O)c4cccc(C(F)(F)F)c4)C3)CC2)n1` (mixture of isomers) [Example 60, N-({1-[4-(4-Methyl-6-oxo-1,6-dihydro-pyrimidin-2-yl)-cyclohexyl]-azetidin-3-ylcarbamoyl}-methyl)-3-trifluoromethyl-benzamide]: the IC50 turned out to be 3900 nM. With `O=C(CNC(=O)c1cccc(C(F)(F)F)c1)NC1CN(C2CCC(c3cncc(O)c3)CC2)C1` (stereo not drawn) [Example 5, N-({1-[4-(5-Hydroxy-pyridin-3-yl)-cyclohexyl]-azetidin-3-ylcarbamoyl}-methyl)-3-trifluoromethyl-benzamide] the figure was 260 nM; with `Cc1ccc(O)c(C2CCC(N3CC(NC(=O)CNC(=O)c4cccc(C(F)(F)F)c4)C3)CC2)n1` (stereo not drawn) [Example 6, N-({1-[4-(3-Hydroxy-6-methyl-pyridin-2-yl)-cyclohexyl]-azetidin-3-ylcarbamoyl}-methyl)-3-trifluoromethyl-benzamide], 50 nM.
